Measurements from US5994349A, “3-carboalkoxy-2, 3-dihydro-1H-phenothiazin-4[10H]-one derivatives” (priority 1997, dated 1999).
Like-named read-outs stand apart in the source and are kept apart here.

Assays:
[1] = tested on: maximal electroshock seizures; assay: maximal electroshock (MES) test, oral rat (Phase VIA/VIB); type: in vivo, male Sprague-Dawley rats; details: for ED50: MES, Phase VIB
Procedure: (§1) Initial evaluations for anticonvulsant activity include phases I, VIA and VIB test procedures. These tests are performed intraperitoneally in male Carworth Farms No. 1 (CF1) mice, weighing 18-25 g (Phase I) or orally in male Sprague-Dawley rats, weighing 100-150 g (Phases VIA and VIB). The evaluation is based on three tests: maximal electroshock (MES), subcutaneous (scMet), and the rotorod test for neurological toxicity (Tox). (a) Anticonvulsant Screening Project, Antiepileptic Drug Development Program, National Institutes of Health, DHEW Publ (NIH)(U.S.) 1978, NIH 78-1093. (b) Porter, R. J.; Cereghino, J. J.; Gladding, G. D.; Hessie, B. J.; Kupferberg, H. J.; Scoville, B.; White, B. G. Antiepileptic drug development program. Cleveland Clin. Q. 1984, 51, 293-305. (c) Krall, R. L.; Penry, J. K.; White, B. G.; Kupferberg, H. J.; Swinyard, E. A. Antiepileptic drug development: II. Anticonvulsant drug screening. Epilepsia 1978, 19, 400-428. In the MES test, maximal electroshock seizures are elicited with a 60- cycle alternating current of 50 mA intensity (5-7 times that necessary to elicit minimal electroshock seizures) delivered via corneal electrodes for 0.2 seconds. A drop of 0.9% saline is placed on the eye prior to application of the electrodes in order to […]. Abolition of the hind limb tonic extension component of the seizure is defined as protection and results are expressed as the number of animals protected/the number of animals tested.
(§2) To differentiate the results between different rodent species, 4b (X=H), as well as 4a (R=H), 4e (R=Cl), 4f (R=Cl) and 4i (R=CH3) are subsequently evaluated for oral (po) activity in the rat (Phase VIA or VIB).

[2] = rotorod toxicity, oral rat (Phase VIA/VIB); type: in vivo, male Sprague-Dawley rats; details: rat, in vivo, po
Procedure: as §1
(§3) The rotorod test is used to evaluate neurotoxicity. The animal is placed on a 1 inch diameter knurled plastic rod rotating at 6 rpm. Normal mice can remain on a rod rotating at this speed indefinitely.
as §2

[3] = tested on: pentylenetetrazol seizures; assay: subcutaneous pentylenetetrazol (scMet) test, Phase I, mice ip; type: in vivo, male Carworth Farms No. 1 (CF1) mice; details: Mus musculus, mice ip
[4] = tested on: maximal electroshock seizures; assay: maximal electroshock (MES) test, Phase I, mice ip; type: in vivo, male Carworth Farms No. 1 (CF1) mice; details: for responders at 10 mg/kg / responders at 30 mg/kg / responders at 100 mg/kg / responders at 300 mg/kg: Mus musculus
In short: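 Male CF1 mice (18-25 g) dosed ip at 30, 100 and 300 mg/kg in 0.5% methylcellulose, tested 30 min and 4 h later (sometimes 2 h and 6 h). Corneal 60-cycle, 50 mA current for 0.2 s; protection = abolition of hind limb tonic extension, scored as protected/tested.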

[5] = tested on: neurotoxicity (rotorod); assay: rotorod test for neurological toxicity (Tox), Phase I, mice ip; type: in vivo, male Carworth Farms No. 1 (CF1) mice
In short: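 Neurological toxicity was assessed in Phase I with the rotorod test in male Carworth Farms No. 1 (CF1) mice weighing 18-25 g, dosed intraperitoneally. Each mouse was set on a knurled plastic rod of 1 inch diameter turning at 6 rpm, a speed normal mice can stay on indefinitely. Motor impairment was recorded 30 min and 4 h after dosing, sometimes also at 2 h and 6 h.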

[6] = tested on: neurotoxicity (rotorod); assay: rotorod toxicity, oral rat (Phase VIA/VIB); type: in vivo, male Sprague-Dawley rats; details: rat oral, 30 mg/kg
Procedure: as §1, §3, §2

[7] = tested on: threshold tonic extension electroshock seizures; assay: Threshold Tonic Extension (TTE) test, mice ip; type: in vivo; details: 100 mg/kg
Excerpt: (§4) Piredda, S. G.; Woodhead, J. H.; Swinyard, E. A. Effect of stimulus intensity on the profile of anticonvulsant activity of phenytoin, ethosuximide and valproate. J. Pharmacol. Exp. Ther. 1985, 232, 741-745. The TTE test is a clinically nonselective, electroconvulsive seizure model that identifies compounds that raise seizure threshold as well as those that prevent seizure spread. […] The TTE test is similar to the MES screen but uses a lower level of electrical current. The lower current makes the TTE test more sensitive, but less discriminate than the MES screen. This ability makes the model attractive because it allows for the identification of compounds that may have been omitted by the standard identification screen. […] These TTE active compounds may represent compounds acting by novel mechanisms.
Twenty mice are pretreated with 100 mg/kg of the test compound. […] This stimulation produces a TTE seizure in the animals. For each time interval, results are expressed as a ratio of the number of animals protected over the number of animals tested.

[8] = tested on: maximal electroshock seizures; assay: MES confirmation of TTE test, mice ip; type: in vivo; details: 100 mg/kg
Procedure: as §1, §4
Twenty mice are pretreated with 100 mg/kg of the test compound. At several time intervals (15 min, 30 min, 1 h, 2 h and 4 h) post treatment with the test compound, four mice at each time point are challenged with 12.5 mA of electrical current for 0.2 sec via corneal electrodes. This stimulation produces a TTE seizure in the animals. For each time interval, results are expressed as a ratio of the number of animals protected over the number of animals tested.

[9] = 0.5 h, 30 min, read-out: scMet 30 min
[10] = 4 h, read-out: MES 4 h (converted)
[11] = 0.5 h, 30 min, read-out: MES 30 min (converted)

What does the source list for COC(=O)[C@@H]1C(=O)C=C(Nc2ccc(Cl)cc2)C[C@H]1C (relative stereo) [Compound 1, methyl 4-[(4'-chlorophenyl)-amino]-6-methyl-2-oxo-3-cyclohexene-1-carboxylate, reference compound]?
responders at 10 mg/kg ([1]; 0.25 h): 75%; responders at 10 mg/kg ([1]; 1.00 h): 100%; responders at 10 mg/kg ([1]; 2.00 h): 100%; responders at 10 mg/kg ([1]; 4.00 h): 75%; responders at 10 mg/kg ([1]; 0.5 h, 0.50 h): 100%; ED50 ([1]; first test, read-out: ED50): 5.8 mg/kg; MES (repeat test) ([1]; repeat test, 0.50 h): 3/4; MES (repeat test) ([1]; repeat test, 1.00 h): 2/4; MES (repeat test) ([1]; repeat test, 2.00 h): 1/4; TD50 [2]: > 380 mg/kg

Which results are given for CCOC(=O)[C@@H]1C(=O)C2=C(C[C@H]1C)Nc1ccccc1S2 (relative stereo) [Compound 4b, 3-Carbethoxy-2-methyl-2,3-dihydro-1H-phenothiazin-4[10H] -one]?
responders at 10 mg/kg [3, 9]: 0%; responders at 30 mg/kg [3, 9]: 0%; responders at 100 mg/kg [3, 9]: 0%; responders at 10 mg/kg ([3]; 4 h, read-out: scMet 4 h): 0%; responders at 30 mg/kg ([3]; 4 h, read-out: scMet 4 h): 0%; responders at 100 mg/kg ([3]; 4 h, read-out: scMet 4 h): 0%; responders at 10 mg/kg ([4]; 4 h, read-out: MES 4 h): 0%; responders at 30 mg/kg ([4]; 4 h, read-out: MES 4 h): 0%; responders at 100 mg/kg [4, 10]: 0%; responders at 10 mg/kg ([4]; 0.5 h, 30 min, read-out: MES 30 min): 0%; responders at 30 mg/kg [4, 11]: 33.3%; responders at 100 mg/kg [4, 11]: 100%; Tox 30 min ([5]; 10 mg/kg): 0/4; Tox 4 h ([5]; 10 mg/kg): 0/2; Tox 30 min ([5]; 30 mg/kg): 0/8; Tox 4 h ([5]; 30 mg/kg): 0/4; Tox 30 min ([5]; 100 mg/kg): 0/4; Tox 4 h ([5]; 100 mg/kg): 0/2; responders at 30 mg/kg ([1]; 0.25 h): 75%; responders at 30 mg/kg ([1]; 1.00 h): 50%; responders at 30 mg/kg ([1]; 2.00 h): 0%; responders at 30 mg/kg ([1]; 4.00 h): 100%; responders at 30 mg/kg ([1]; 0.5 h, 0.50 h): 25%; ED50 ([1]; repeat test, read-out: ED50 (repeat test)): 47.2 mg/kg; protective index (TD50/ED50) ([1]; repeat test (ED50 47.2, TD50 >500 mg/kg)): > 10.6; TD50 [2]: > 500 mg/kg; Tox ([6]; 0.25 h): 0/4; Tox ([6]; 0.50 h): 1/2; Tox ([6]; 1.00 h): 0/4; Tox ([6]; 2.00 h): 0/4; Tox ([6]; 4.00 h): 0/4

Which responders at 30 mg/kg [3, 9] does the source give for CC1CC(=O)C2=C(C1)Nc1ccccc1S2 (centres unmarked) [Compound 4d, 2-Methyl-2,3-dihydro-1H-phenothiazin-4[10H] -one] here?
Its responders at 30 mg/kg is 0%.

What about the responders at 100 mg/kg [3, 9] of the same molecule?
The responders at 100 mg/kg was 0%.

What about the responders at 300 mg/kg ([3]; 0.5 h, 30 min, read-out: scMet 30 min (converted)) of the same molecule?
The responders at 300 mg/kg was 0%.

What about the responders at 30 mg/kg ([3]; 4 h, read-out: scMet 4 h) of the same molecule?
Its responders at 30 mg/kg is 0%.

And the responders at 100 mg/kg ([3]; 4 h, read-out: scMet 4 h)?
The responders at 100 mg/kg was 0%.

And the responders at 300 mg/kg ([3]; 4 h, read-out: scMet 4 h (converted))?
The responders at 300 mg/kg was 0%.

And the responders at 30 mg/kg ([4]; 4 h, read-out: MES 4 h)?
The responders at 30 mg/kg was 0%.

And the responders at 100 mg/kg [4, 10]?
The responders at 100 mg/kg was 0%.

What about the responders at 300 mg/kg [4, 10] of the same molecule?
The responders at 300 mg/kg was 0%.

And the responders at 30 mg/kg [4, 11]?
The responders at 30 mg/kg was 0%.

And the responders at 100 mg/kg [4, 11]?
Its responders at 100 mg/kg is 0%.

What about the responders at 300 mg/kg [4, 11] of the same molecule?
The responders at 300 mg/kg was 0%.

What about the “phase I activity” value ([4]; Phase I, in words) of the same molecule?
Its value is “inactive”.

What about the “Tox 30 min” value ([5]; 30 mg/kg) of the same molecule?
The value was 0/4.

And the “Tox 4 h” value ([5]; 30 mg/kg)?
The value was 0/2.

And the “Tox 30 min” value ([5]; 100 mg/kg)?
Its value is 0/8.

What about the “Tox 4 h” value ([5]; 100 mg/kg) of the same molecule?
The value was 0/4.

What about the “Tox 30 min” value ([5]; 300 mg/kg) of the same molecule?
The value was 0/4.

And the “Tox 4 h” value ([5]; 300 mg/kg)?
Its value is 0/2.

And the “TTE Result” value ([7]; 0.25 h)?
Its value is 1/4.

What about the “TTE Result (repeat test)” value ([7]; 0.25 h) of the same molecule?
The value was 2/4.

And the “TTE Result” value ([7]; 0.50 h)?
Its value is 3/4.

And the “TTE Result (repeat test)” value ([7]; 0.50 h)?
The value was 2/4.

What about the “TTE Result” value ([7]; 1.00 h) of the same molecule?
Its value is 1/4.

And the “TTE Result (repeat test)” value ([7]; 1.00 h)?
The value was 0/4.

What about the “TTE Result” value ([7]; 2.00 h) of the same molecule?
The value was 3/4.

And the “TTE Result (repeat test)” value ([7]; 2.00 h)?
Its value is 0/4.

And the “TTE Result” value ([7]; 4.00 h)?
Its value is 0/4.

What about the “TTE Result (repeat test)” value ([7]; 4.00 h) of the same molecule?
Its value is 0/4.

And the “TTE Result (repeat test)” value ([7]; 6.00 h)?
The value was 1/4.

What about the MES confirmation ([8]; 0.25 h) of the same molecule?
Its MES confirmation is 0/4.

And the “MES confirmation (repeat test)” value ([8]; 0.25 h)?
The value was 1/4.

What about the MES confirmation ([8]; 0.50 h) of the same molecule?
Its MES confirmation is 3/4.

And the “MES confirmation (repeat test)” value ([8]; 0.50 h)?
Its value is 1/4.

And the MES confirmation ([8]; 1.00 h)?
Its MES confirmation is 1/4.

What about the MES confirmation ([8]; 2.00 h) of the same molecule?
The MES confirmation was 0/4.
